Source: US5322772A (Children's Research Institute, priority 1991, dated 1994)

Legend:
[1] = target: FKBP (Homo sapiens, UniProt P62942); details: cited from earlier work
[2] = target: 50-58 kDa protein; assay: LH-20 binding assay with purified 50-58 kDa binding protein from JURKAT cytosol; parameters: species or system human; details: for Kd: 50-58 kDa protein from peripheral blood mononuclear leukocytes and JURKAT cytosol
Procedure: E. The reaction mixture, typically a 100 μl aliquot run in duplicate, is poured onto a column of convenient dimension, such as 0.8×7.0 cm of a molecular sieve matrix such as LH-20 Sephadex (Pharmacia Fine Chemicals, Piscataway, N.J.).
The S-100 fraction was further filtered (0.45 μm pore size membrane, Gelman Sciences), the filtrate (2.9 mg protein) passed through a 600×7.5 nun Bio-Sil-125 HPLC exclusion column at a flow rate of 1.0 ml/minute in 10 mM phosphate buffer, pH 6.8; protein elution was monitored at 280 nm. Fractions (1 ml) were collected and analyzed for binding of ^3 H-dihydro FK-506 using the previously described LH-20 assay, Donnelly et al., 1991, above, which is herein incorporated by reference. Specific binding was determined by assaying each fraction without (total binding) and with ([…]) an excess of unlabeled FK-506.
The 58 kDa protein was purified from 1.4×10^10 human T-cells (JURKAT). The S-100 fraction (10 ml) was centrifuged at 2500×g for 1 hour at 4° C. in a 30 kDa Centriprep™ concentrator (Amicon Corp., Danvers, Ma.). The concentrate (1 ml) was diluted with 15 ml of 10 mM phosphate buffer, pH 6.8, and concentrated down to 5 ml. This step removed proteins of less than 30 kDa, i.e., cyclophilin and FKBP, from the S-100 fraction.
[…] FK-506 and CsA drugs was refocused under the same conditions, using only the ampholytes contained in the 2.7 ml fraction (diluted to 55 ml with deionized water). Focusing was complete when a constant voltage of 2200 was reached.
The 20 fractions were assayed for drug binding as above. […] This fraction (3.02 mg in 2.7 ml) was chromatographed in a Bio-Sil-125 HPLC column at a flow rate of 1.0 ml/minute in 10 mM phosphate buffer, pH 6.8. Fractions representing proteins of 50-60 kDa were screened for binding to both FK-506 and CsA.
Binding fractions were probed and chromatographed on a Beckman TSK CM-25W Spherogel column (26×4.6 mm) at a flow rate of 0.5 ml/minute in 10 mM phosphate buffer, pH 6.8. Fractions containing binding activity were probed and used for binding assays.
The binding assay was the LH-20 assay of Example 1.
The LH binding assay was used for generating the competition curve of FIG. 4.

[3] = test system: experimental immunopathies; details: rats; cited from earlier work
[4] = test system: Candida albicans; details: especially Candida albicans; cited from earlier work
[5] = test system: 17 kDa (presumably cyclophilin) and 50 kDa cyclosporine A binding proteins; assay: Binding of 3H-cyclosporine A to HPLC fractions of JURKAT S-100 cytosol (LH-20 assay); parameters: species or system human; details: rapamycin at 70 nM; either protein (17 kDa, 50 kDa)
Source text: The experimental conditions of Example 1A were repeated, except that ^3 H-cyclosporine A and unlabeled cyclosporine A were substituted for FK-506.

[6] = test system: immune responses; details: fold greater than cyclosporine A; cited from earlier work
[7] = target: FKBP; details: FKBP isolated from yeast, calf thymus and human T cells (JURKAT); cited from earlier work

Sequence of FKBP (Homo sapiens, UniProt P62942) (P62942 whole entry): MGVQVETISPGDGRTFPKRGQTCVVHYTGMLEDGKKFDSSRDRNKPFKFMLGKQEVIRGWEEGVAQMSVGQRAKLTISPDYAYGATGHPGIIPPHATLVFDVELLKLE

SMILES | inhibition of isomerase activity of FKBP [1] | Kd [2] [nM] | effect on binding of 3H-CsA ([2]; RAP at 300 nM, purified 58 kDa protein) | IC50 ([2]; inhibition of specific binding of 3H-dihydro FK-506 to purified 58 kDa protein, read-out: B50 value) [nM] | inhibition of specific binding of 3H-dihydro FK-506 ([2]; purified 58 kDa protein, RAP 0.005-500 nM) | development of experimental immunopathies and formation of IgE-like antibody [3] | activity against Candida species [4] | effect on binding of cyclosporine A [5] | potency of inhibiting immune responses relative to cyclosporine A [6] | inhibition of CsA binding ([2]; 50-58 kDa protein) | Kd [7] [nM]
CO[C@H]1C[C@@H]2CC[C@@H](C)[C@@](O)(O2)C(=O)C(=O)N2CCCC[C@H]2C(=O)O[C@H]([C@H](C)C[C@@H]2CC[C@@H](O)[C@H](OC)C2)CC(=O)[C@H](C)/C=C(\C)[C@@H](O)[C@@H](OC)C(=O)[C@H](C)C[C@H](C)/C=C/C=C/C=C/1C [RAP, Rapamycin] | potent inhibitor | 0.1 | unaffected | 0.1 | inhibited in a dose-dependent manner | totally prevented | highly active | did not affect |  |  | 
C=CC[C@@H]1/C=C(\C)C[C@H](C)C[C@H](OC)[C@H]2O[C@@](O)(C(=O)C(=O)N3CCCC[C@H]3C(=O)O[C@H](/C(C)=C/[C@@H]3CC[C@@H](O)[C@H](OC)C3)[C@H](C)[C@@H](O)CC1=O)[C@H](C)C[C@@H]2OC [FK-506] |  | 2 |  |  |  |  |  |  | 100-500 fold | inhibited by FK-506 in a dose-dependent manner | 0.4
